Source: patent US6214795A, “Peptide compounds useful for modulating FGF receptor activity” (Praecis Pharmaceuticals, Inc., priority 1996, dated 2001)
Like-named read-outs stand apart in the source and are kept apart here. Residues, ends and D or L forms follow the SMILES beside them. No end group written: not given here. *: point of attachment. Biotin = O=C1N[C@H]2[C@H](CS[C@H]2CCCCC(=O)*)N1

Experiments:
[1] = target: FGFR2-IIIC (Homo sapiens, UniProt P21802); assay: FGF receptor binding assay: inhibition of 125I-bFGF binding to FGF receptor
FGFR2-IIIC, sequence (P21802 22-377 limits assumed, species assumed): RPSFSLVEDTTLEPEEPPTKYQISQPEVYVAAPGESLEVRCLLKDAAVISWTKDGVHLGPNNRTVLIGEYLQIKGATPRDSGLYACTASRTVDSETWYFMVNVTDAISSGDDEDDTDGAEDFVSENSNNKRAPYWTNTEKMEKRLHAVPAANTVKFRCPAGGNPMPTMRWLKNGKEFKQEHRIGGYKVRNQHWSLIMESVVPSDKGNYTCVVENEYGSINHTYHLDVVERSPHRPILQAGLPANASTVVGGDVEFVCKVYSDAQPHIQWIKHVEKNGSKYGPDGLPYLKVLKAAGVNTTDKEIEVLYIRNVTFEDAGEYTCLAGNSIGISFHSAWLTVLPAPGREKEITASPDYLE
Procedure: The ability of a peptide compound to bind to an FGF receptor can be determined using one or both of the receptor binding assays described in this example, which measure the ability of a test compound to inhibit the binding of radiolabeled bFGF to the FGF receptor. The first assay is a cell-based assay, utilizing FGF receptor-expressing cells. Cells expressing an FGF receptor are seeded on a 96 well plate (50,000 cells/well) and incubated overnight at 37° C., 5% CO2. The cells are then washed once with binding buffer (Dulbecco's Modified Eagle's Medium (DMEM) with HEPES, gelatin and heparin). A test peptide is diluted to the desired concentration in binding buffer with heparin (15 U/ml) and added to the cells (25 μl per well). ^125 I-bFGF (50,000 cpm/well; Amersham Life Sciences), diluted in binding buffer with heparin, is added to each well (25 μl per well so that final volume is 50 μl). The cells are incubated in a humidified chamber at 4° C. for 3 hours. The cells are washed twice with binding buffer to remove unbound material. The washed cells are then dissolved in 100 μl of 1N NaOH and counted in a gamma counter. The ability of a test compound to bind to FGFR is evidenced by the reduced binding of ^125 I-bFGF to the cells in the presence of the test compound as compared to the binding of ^125 I-bFGF to the cells in the absence of the test compound.
A second FGFR binding assay utilizes biotinylated soluble FGFR. Biotinylated FGFR is mixed in an eppendorf tube with ^125 I-bFGF and a test compound in binding buffer. The tubes are placed on an eppendorf roller at 4° C. for 1.5 hours. Magnetic streptavidin beads (CPG, Inc.) are prepared by washing twice with binding buffer. After the 1.5 hour incubation of the tubes, 15 μl of magnetic streptavidin beads are added to each tube and continued on the eppendorf roller for 10 minutes at 4° C. to allow the strepavidin to interact with the biotinylated FGFR. The tubes are removed from the roller and spun down in a microfuge for 2 minutes at 3000 rpm. Using magnets, the magnetic beads are washed twice with binding buffer. 100 μl of binding buffer is added to each tube and the contents are moved to a 12×75 mm test tube. The contents (i.e., strepavidin beads, with biotinylated FGFR and ^125 I-bFGF bound thereto) are counted in a Gamma counter. The ability of a test compound to bind to FGFR is evidenced by the reduced binding of ^125 I-bFGF to the biotinylated FGFR in the presence of the test compound as compared to the binding of ^125 I-bFGF to the biotinylated FGFR in the absence of the test compound.

[2] = test system: NIH 3T3 cells; type: cell-based
Procedure: A second functional assay for FGFR is a proliferation assay, based on the fact that NIH 3T3 cells show enhanced growth in the presence of increasing concentrations of bFGF. NIH 3T3 cells are cultured (e.g., about 3 days) with bFGF (10 nM) in the presence or absence of a test peptide compound. Cell growth is quantitated using a standard method for detecting cell growth, such as tritiated thymidine incorporation or uptake of 3, ([…])2,5-diphenyl-tetrazolium bromide (MTT). MTT (commercially available from Sigma Chemical Co.) is a chromogenic substrate that is converted from yellow to blue in viable cells, which can be detected spectrophotometrically.

[3] = test system: p42-MAP kinase; assay: Signal transduction assay: bFGF-induced phosphorylation/activation of MAP kinase in NIH 3T3 cells; type: cell-based
Text: The effect of peptide compounds on the functional activity of an FGF receptor can be evaluated in one or both of the functional assays described in this example. The first assay is a signal transduction assay, exploiting the fact that bFGF binding to FGFR initiates a phosphorylation cascade that includes the phosphorylation of MAP kinase (MAP-K). Accordingly, the ability of a test compound to modulate bFGF-induced phosphorylation of MAP-K is examined. NIH 3T3 cells are synchronized to quiescence by growing in medium containing 0.5% fetal bovine serum (FBS) for 2 days. The cells are then shifted into fresh 0.5% FBS-containing medium for 2 hours to reduce the basal level of MAP-K phosphorylation before the experiment. Test peptide compounds are dissolved in fresh dimethyl sulfoxide (DMSO) to 100 mg/ml and series dilutions are made in DMSO. […] Phosphorylation of MAP-K in the 3T3 cells is initiated by incubating the cells with the bFGF-containing medium in the presence or absence of test peptide for 15 minutes at 37° C. The phosphorylation is stopped by washing with cells with PBS and lysing the cells with sodium […] (SDS)-containing buffer. Cell lysates are separated on 12% SDS polyacrylamide gels and the proteins are transferred onto PVDF membranes. Membrane-bound cellular proteins are probed with a rabbit anti-phosphoMAP-K antibodies, followed by a goat anti-rabbit secondary antibody, labeled with horse radish peroxidase. The blots are then detected by the enhanced chemiluminescence (ECL) method.

[4] = Table 3 peptides, inhibition of bFGF binding to FGFR2-IIIC
[5] = Table 5 peptides (bFGF-binding peptides)
[6] = Table 3 peptides, bFGF-induced MAP-K phosphorylation, read-out: MAP-K
[7] = Table 3 peptides, values given in mM

Compound | IC50 [1, 4] [mM] | IC50 [2] [µM] | other results
GAHYLRQYMMRFLG-NH2 [Compound 669, H-GAHYLRQYMMRFLG-NH*TFA] | ~0.02 |  | 
GYLYLYMVG [Compound 656, H-GYLYLYMVG-OH*TFA] | > 0.1 |  | 
Ac-GSWGDWERSGDWFG-NH2 [Compound 512, Acetyl-GSWGDWERSGDWFG-NH] |  | > 100 | IC50 [1, 5]: > 0.1 mM
GYLAQYMARG-NH2 [Compound 662, H-GYLAQYMARG-NH*TFA] | ~0.3 |  | 
GYYLLWMVG [Compound 564, H-GYYLLWMVG-OH*TFA] | > 0.1 |  | 
GFLMMYMMG [Compound 566, H-GFLMMYMMG-OH*TFA] | > 0.1 |  | 
GAHYLRQYLMRFRG-NH2 [Compound 668, H-GAHYLRQYLMRFRG-NH*TFA] | ~0.003 |  | 
YLRQYLMRFR-NH2 [Compound 671, H-YLRQYLMRFR-NH*TFA] | ~0.008 |  | Binding IC50 [1, 4]: does not appear to further increase the IC50
HYLRQYLMRFR-NH2 [Compound 672, H-HYLRQYLMRFR-NH*TFA] | ~0.008 |  | 
bFGF: basic fibroblast growth factor, the FGF receptor ligand used as stimulus and unlabeled competitor [reference compound] |  |  | Activation of MAP-K ([3]; 1 and 10 nM, without test peptide, FIG. 3): 40-60%
GKALEWYKSLMRMG-NH2 [Compound 661, H-GKALEWYKSLMRMG-NH*TFA] | ~0.3 |  | 
CC(C)C[C@H](NC(=O)[C@H](CC(=O)O)NC(=O)[C@@H](NC(=O)[C@H](CS)NC(=O)CNC(=O)[C@H](C)NC(=O)[C@H](C)NC(=O)CNC(=O)[C@H](CC(=O)O)NC(=O)[C@H](C)N)C(C)C)C(=O)N[C@@H](Cc1ccc(O)cc1)C(=O)N[C@@H](Cc1c[nH]cn1)C(=O)N[C@@H](Cc1ccc(O)cc1)C(=O)N[C@H](C(=O)N[C@@H](Cc1ccc(O)cc1)C(=O)N[C@@H](CS)C(=O)NCC(=O)NCC(=O)N[C@@H](C)C(=O)N[C@@H](C)C(N)=O)C(C)C [Compound 507] (H-ADGAAGCVDLYHYVYCGGAA-NH2) |  | 10 to 100 | Effect on proliferative activity of bFGF ([2]; NIH 3T3 cells): antagonists of the proliferative activity of bFGF
GFLGKYMESLMRMG-NH2 [Compound 659, H-GFLGKYMESLMRMG-NH*TFA] | ~0.3 |  | 
GAHNLRQYLMRFLG [Compound 623, H-GAHNLRQYLMRFLG-OH*TFA] | ~0.12 | ~100 | IC50 [3, 6]: ~50 µM; Effect on activation of MAP-K by bFGF ([3]; increasing concentrations of compound): clearly antagonized
CC(C)C[C@H](NC(=O)[C@H](CC(C)C)NC(=O)[C@H](CC(=O)O)NC(=O)[C@H](CC(=O)O)NC(=O)[C@H](Cc1c[nH]c2ccccc12)NC(=O)[C@H](CC(=O)O)NC(=O)[C@H](Cc1ccc(O)cc1)NC(=O)CNC(=O)[C@H](C)NC(=O)[C@H](C)NC(=O)CNC(=O)[C@H](CC(=O)O)NC(=O)[C@H](C)NC(=O)CCCC[C@@H]1SC[C@@H]2NC(=O)N[C@@H]21)C(=O)N[C@@H](CO)C(=O)NCC(=O)N[C@@H](C)C(=O)N[C@@H](C)C(N)=O [Compound 476, Biotin-ADGAAGYDWDDLLSGAA-NH] (Biotin-ADGAAGYDWDDLLSGAA-NH2) |  | > 100 | IC50 [1, 5]: > 0.1 mM
ADGAAGYDWDDLLGGAA-NH2 [Compound 477, H-ADGAAGYDWDDLLGGAA-NH*TFA] |  | > 100 | IC50 [1, 5]: > 0.1 mM
GSLMRMG-NH2 [Compound 663, H-GSLMRMG-NH*TFA] |  |  | IC50 [1, 7]: > 1 mM
GAHYLRQYLMRFLG-NH2 [Compound 658, H-GAHYLRQYLMRFLG-NH*TFA] | ~0.008 |  | IC50 ([2]; NIH 3T3 cells, 10 nM bFGF, FIG. 6, read-out: Concentration that half maximally reduces bFGF-induced proliferation): 40 µM; IC50 ([3]; 1 nM bFGF, FIG. 5, read-out: Concentration that half maximally antagonizes bFGF activation of MAP-K): ~3 µM; IC50 [3, 6]: ~1 µM
Ac-GHDGEMYG-OH [Compound 660, Acetyl-GHDGEMYG-OH] |  |  | IC50 [1, 7]: > 1 mM
AHYLRQYLMRFR-NH2 [Compound 673, H-AHYLRQYLMRFR-NH*TFA] | ~0.008 |  | 
GYFQYMALYG [Compound 567, H-GYFQYMALYG-OH*TFA] | > 0.1 |  | 
ADGAAGYDWDDLLSGAA-NH2 [Compound 475, H-ADGAAGYDWDDLLSGAA-NH*TFA] |  | > 100 | IC50 [1, 5]: > 0.1 mM
CC(C)C[C@H](NC(=O)[C@H](CC(C)C)NC(=O)[C@H](CC(=O)O)NC(=O)[C@H](CC(=O)O)NC(=O)[C@H](Cc1c[nH]c2ccccc12)NC(=O)[C@H](CC(=O)O)NC(=O)[C@H](Cc1ccc(O)cc1)NC(=O)CNC(=O)[C@H](C)NC(=O)[C@H](C)NC(=O)CNC(=O)[C@H](CC(=O)O)NC(=O)[C@H](C)NC(=O)CCCC[C@@H]1SC[C@@H]2NC(=O)N[C@@H]21)C(=O)NCC(=O)NCC(=O)N[C@@H](C)C(=O)N[C@@H](C)C(N)=O [Compound 478, Biotin-ADGAAGYDWDDLLGGAA-NH] (Biotin-ADGAAGYDWDDLLGGAA-NH2) |  | > 100 | IC50 [1, 5]: > 0.1 mM
CC(=O)NCC(=O)N[C@@H](CS)C(=O)N[C@H](C(=O)N[C@@H](CC(C)C)C(=O)N[C@@H](CC(C)C)C(=O)N[C@@H](Cc1ccc(O)cc1)C(=O)N[C@@H](CC(=O)O)C(=O)N[C@@H](CCC(=O)O)C(=O)N[C@@H](CCCNC(=N)N)C(=O)N[C@H](C(=O)N[C@@H](CS)C(=O)NCC(N)=O)[C@@H](C)O)C(C)C [Compound 513, Acetyl-GCVLLYDERTCG-NH] (Ac-GCVLLYDERTCG-NH2) |  | > 100 | 
ADGAAGSWGDWERSGDWFGGAA-NH2 [Compound 509] |  | > 100 | IC50 [1, 5]: > 0.1 mM
GDVFLSMYQFSVIG [Compound 622, H-GDVFLSMYQFSVIG-OH*TFA] | > 0.1 |  | 
LRQYLMRFR-NH2 [Compound 670, H-LRQYLMRFR-NH*TFA] | ~0.12 |  | 
CC(=O)NCC(=O)N[C@@H](CS)C(=O)N[C@H](C(=O)N[C@@H](CC(=O)O)C(=O)N[C@@H](CC(C)C)C(=O)N[C@@H](Cc1ccc(O)cc1)C(=O)N[C@@H](Cc1c[nH]cn1)C(=O)N[C@@H](Cc1ccc(O)cc1)C(=O)N[C@H](C(=O)N[C@@H](Cc1ccc(O)cc1)C(=O)N[C@@H](CS)C(=O)NCC(N)=O)C(C)C)C(C)C [Compound 514, Acetyl-GCVDLYHYVYCG-NH] (Ac-GCVDLYHYVYCG-NH2) |  | 10 to 100 | Effect on proliferative activity of bFGF ([2]; NIH 3T3 cells): antagonists of the proliferative activity of bFGF; IC50 ([3]; Table 5 peptides, read-out: MAP-K): ~50 µM
